# Experimental data published in a melting point compilation (Tetko et al.; mined from patent text by program, amines drawn as free bases though some values may be those of a salt).
row,SMILES,melting point [°C]
1,CCOC(=O)c1ncn2c1CN=C(c1ccccn1)c1cc(C#C[Si](C)(C)C)ccc1-2,205 to 206
2,O=C(CCCN1CCC2(CC(O)c3cc(Cl)cc(Cl)c32)C1)c1ccc(F)cc1 (stereo not given),149 to 152
3,Cc1nc(C)n(CCOCC2=C(C(=O)OC(C)C)C(c3ccccc3Cl)C(C(=O)Nc3ccccn3)=CN2)c1C (stereo not given),180 to 182
4,NSc1nccnc1Cl,113 to 114
5,COc1ccc2[nH]c3c(c2c1)C(C)CNC3=O (stereo not given),220
6,Cc1cc(=S)c2c(O)cc(OC(C)C)cc2o1,119 to 120
7,N#CC1(C2(O)CCCCC2)Cc2cc3occc3cc21 (stereo not given),154 to 158
8,CC(C)c1cc(OCCN2CCOCC2)cc2c1C(=O)N(COc1cc(=O)n3cccc(OCCCN4CCOCC4)c3n1)S2(=O)=O,145 to 150
9,C=CCN1CC(=O)N2CCC[C@H]2C1=O,106 to 109
10,Cn1cncc1C(O)(c1ccc(Cl)cc1)c1ccc2nc(C=O)cc(-c3cccc(Cl)c3)c2c1 (stereo not given),205
11,CCCCC#CCCOc1ccc(C=O)cc1OC,64.5 to 65.5
12,CCCNC1=NS(=O)(=O)c2sc(Cl)cc2N1,258 to 261
13,O=C(O)C(Oc1ccccc1)C(=O)NCC1CCN(c2ccncc2)CC1 (stereo not given),84 to 86
14,CCOC(=O)C(=C1SC(=S)N(CC(=O)O)C1=O)c1csc(NC(=S)NC(=O)c2ccccc2)n1,233 to 235
15,CN1C2CCC1CC(O)(c1ccc(F)cc1)C2 (stereo not given),169
16,CC1CCC2(CC1S(=O)(=O)c1ccccc1)OCCO2 (stereo not given),105 to 106
17,CC(C)=CCn1c(N(C)C[C@@H](C)N)nc2c1c(=O)n(C)c(=O)n2C,101 to 104
18,C=C1C(O)C(CO)OC1n1cc(F)c(N)nc1=O (stereo not given),185 to 187
19,CCC12CCC3C4CCCC=C4CCC3C1C=CC2=O (stereo not given),125
20,CCS(=O)c1nc(-c2ccc(OC)cc2)c(-c2ccc(OC)cc2)[nH]1 (stereo not given),161 to 162
21,CCOCc1nc2c(N)nc(C)c(C)c2n1CCCCS(=O)(=O)NC,194 to 196
22,O=C(Oc1ccccc1Br)c1cc(I)c[nH]1,126 to 127
23,CN1CCc2nc3cc(Cl)ccc3c(-c3cccs3)c2C1,131 to 132
24,CNC(=O)C1=CC(CF)(CF)Oc2ccc(C(F)(F)F)cc21,162 to 164
25,CSc1cnc(NC(=O)C(Cc2ccc(F)cc2)c2ccc(S(C)(=O)=O)cc2)cn1 (stereo not given),188

row,SMILES,melting point [°C]
1,COc1ccc2ccc(-c3ccccc3)cc2c1,65.4 to 66.3
2,CCNC(=S)NCc1ccc(/C=C/C(c2cc(Cl)c(Cl)c(Cl)c2)C(F)(F)F)cc1Cl (stereo not given),88 to 91
3,Cc1cc(-c2cc(C(F)(F)F)n3ncc(-c4ccnc(CO)c4)c3n2)ccc1Cl,220
4,CC(C)(C)OC(=O)Nc1cn(-c2cccnc2)nc1Cl,125 to 128
5,CCN(CC)CCNc1cccc2c1C(=O)c1cccc(NCCN(CC)CC)c1C2=O,158 to 160
6,COC(=O)c1[nH]c(-c2ccccc2)c(NC(N)=O)c1C(=O)OC,246 to 248
7,COC(=O)C1=C(C)NC(c2csc(Cl)n2)=NC1c1ccc(F)cc1Cl (stereo not given),160 to 162
8,c1ncc2ncncc2n1,124 to 126
9,OC1C(COCC(F)(F)F)OC(n2cnc3c(Nc4ccc(F)cc4)ncnc32)C1O (stereo not given),214 to 215
10,CCOC(=O)c1cn(C)c2cc(-n3cccc3)c(F)cc2c1=O,253 to 254
11,CC(C)(C)[C@@H](NS(=O)(=O)c1ccc(Oc2ccc(Cl)cc2)cc1)C(=O)O,138 to 140
12,C#CCN(Cc1cc2c(=O)[nH]c(COC(C)=O)nc2cc1Cl)c1ccc(C(=O)OC(C)(C)C)cc1,219 to 220
13,COc1cc(OC)c2c(=O)[nH]c(-c3ccc(OC)c(-c4ccc(S(C)=O)cc4)n3)nc2c1 (stereo not given),266 to 267
14,Cc1cc(C(O)(C(F)(F)F)C(F)(F)F)cc(C)c1NCCN(C)C,112 to 115
15,CC(O)(C(=O)Nc1ccc(S(=O)(=O)N(c2ccccc2)c2ccccc2)cc1)C(F)(F)F (stereo not given),217 to 220
16,CCCCCCCCCCCCS(=O)(=O)CCOc1ccc(C/C=C(\OC(=O)CC)C(F)(F)F)cc1,60 to 63
17,CC(C)CCCC(C)C1CCC2C3CCC4CC(=O)CC(C)C4(C)C3CCC12C (stereo not given),132 to 133
18,Cc1ccc(S(=O)(=O)N2[C@@H](c3ncn(C)n3)CC[C@H]2c2ccc(F)cc2)cc1 (racemic),160
19,COc1ccc(-c2sc(Nc3cnccn3)nc2C)cc1S(N)(=O)=O,378
20,Nc1cc2c(Nc3ccc(Cl)c(Cl)c3)ncnc2cn1,277 to 280
21,Cn1nc(-c2ccc(Cl)cc2)n(Cc2ccccc2)c1=O,90 to 91
22,COc1cc(-c2nc3ccc(OCCCN4CCCCC4)cc3n2Cc2ccccc2C(F)(F)F)cc(OC)c1OC,138
23,COc1cc(/C=C/CCO)ccc1OCc1ccccc1,57 to 61
24,CC(=O)Nc1ccc(S(=O)(=O)NC(=N)c2cnccn2)cc1,270 to 274
25,Cn1c(CNCC(C)(C)O)cc2cc(NC(=O)c3ccc(OC[C@@H]4CCCO4)cc3F)ccc21,159 to 160

row,SMILES,melting point [°C]
1,O=C(O)CCc1cc(OCCCCc2cc(-c3ccc(C(F)(F)F)cc3)no2)nn1-c1ccccc1,139 to 140
2,CC1(C)CC(C(O)CNc2nc(NCC(O)C3CC(C)(C)NC(C)(C)C3)nc(NCC(O)C3CC(C)(C)NC(C)(C)C3)n2)CC(C)(C)N1 (stereo not given),176 to 178
3,CCOC(=O)/C=C/c1cnc(-c2ccc(O)c(C34CC5CC(CC(C5)C3)C4)c2)nc1,226 to 228
4,CC(=O)Nc1ccc(CCC2(c3ccccc3)CC(O)=CC(=O)O2)cc1 (stereo not given),155 to 160
5,COC(=N)N1CCC(c2n[nH]c3ccccc23)CC1,153 to 155
6,O=C1C2CCCN2c2ncccc2N1Cc1ccncc1 (stereo not given),262 to 265
7,CCOC(=O)c1ncc2[nH]c3cccc(Oc4ccc(Cl)cn4)c3c2c1COC,156 to 158
8,COc1cc(-c2nc(N(C)CCN)c3c(C)c(C#N)sc3n2)cc(OC)c1OC,> 290
9,COc1ccc2nc(COc3ccc(CC(SC(C)=O)C(=O)O)cc3)n(C)c2c1 (stereo not given),209 to 214
10,COc1ccc(CN2CCC(c3ccc(-c4cccc(N)n4)cc3)CC2)cc1OC,150 to 165
11,CC#CC(C)(C)NC(=O)C(COC)Oc1cc(Cl)cc(Cl)c1 (stereo not given),107 to 110
12,COC(=O)COc1cccc2c1cc(C)n2Cc1cccc(-c2ccccc2)c1,99 to 102
13,CCOC(=O)c1cnc(NN)nc1-c1ccccc1,74 to 75
14,COc1cccc(C2=C(CO)C(=O)N(C)CC2)c1,81 to 83
15,CCOc1ccc2nc(SC)c(C=O)cc2c1,124 to 125
16,CN(CCc1c[nH]c2ccc(NC(N)=O)cc12)C(=O)C(F)(F)F,193 to 194
17,O=[N+]([O-])c1cccc(CNc2nnn[nH]2)c1,208 to 210
18,CCCc1nc2c(N)nc3ccccc3c2n1CCCCS(C)(=O)=O,202 to 204
19,C[Si](C)(O)O[Si](C)(C)c1ccc(OC(=O)Oc2ccc([Si](C)(C)O[Si](C)(C)O)cc2)cc1,62 to 63
20,N#Cc1ccccc1-c1cccc(-c2cnc3nc(C(F)(F)F)cnn23)c1F,167 to 168
21,O=C1Cc2ccc(C3CCCC3)cc2O1,42 to 43
22,O=S1C(c2cccc(-c3ccc(O)c(C45CC6CC(CC(C6)C4)C5)c3)n2)=CN=C1N1CCOCC1 (stereo not given),339 to 343
23,O=C(O)CC(F)C(=O)c1ccc(-c2ccc(Cl)cc2)cc1 (stereo not given),170 to 173
24,CC(C)(C)c1cc2ccccc2[nH]1,71 to 72
25,Nc1nnc(-c2ccc3ncn(-c4cccc(OC(F)(F)F)c4)c3c2)o1,215 to 216

row,SMILES,melting point [°C]
1,COCCCN(C(=O)N(CCCl)N=O)C1(O)C(OCC(C)C)OCC(O)C1O (stereo not given),84 to 86
2,CC(C)(C)OC(=O)C(=[N+]=[N-])C(=O)CO,35
3,CNC(=O)CC1=CSC2=C(C(=O)OC(C)C)C(C)CN12 (stereo not given),203 to 205
4,CCOC(=O)C(=O)CCc1ccc(OC)c(OC)c1,85 to 87
5,Cc1cc2c(cc1Cl)NC(=O)C2(N)c1ccccc1Cl (stereo not given),233
6,C/C(=C\c1ccc(Cc2cccnc2)cc1)C(=O)Oc1ccccc1,52 to 53
7,CCOC(=O)COc1ccc2c(-c3ccc(Cl)cc3)noc2c1,97
8,COc1ccc2c(Cc3c(Cl)cncc3Cl)nnc(N3CCOCC3)c2c1,179 to 180
9,Nc1ccccc1OCCCN1CCC(OC(c2ccccc2)c2ccccc2)CC1,86 to 88
10,c1ccc(-n2c(-c3ccc(OCCCN4CCCCC4)cc3)nc3ccccc32)cc1,86
11,CN(C)S(=O)(=O)N1CCN(S(=O)(=O)c2ccc(Oc3ccccc3)cc2)[C@@H](C(=O)NO)C1,153 to 155
12,COC(CO)(OC)C1(c2ccc(Cl)cc2)CCC1,73 to 74
13,CCCNC(=Nc1ccccc1N1CCOCC1)NCCC,212 to 214
14,CCOC(=O)C1=C(C)Nc2nc(N)nc(N)c2C1c1cc(OC)c(OC)c(OC)c1 (stereo not given),126
15,COc1cc2cc(C(=O)N3CC(COS(C)(=O)=O)c4c3cc([N+](=O)[O-])c3ccccc43)[nH]c2c(OC)c1OC (stereo not given),214
16,CNn1c(SC)nnc(-c2ccccc2)c1=O,119 to 120
17,COc1cc(OCC2CC2)c(/C=C/C(=O)c2ccc(C(=O)O)cc2)cc1-c1cccs1,187 to 191
18,O=C(O)COc1c(-c2cc(Cl)cc(Cl)c2)cc(C(=O)NCCCCCCCCc2ccccc2)cc1-c1cc(Cl)cc(Cl)c1,139 to 149
19,CS(=O)(=O)Nc1ccc2c(c1)C(=O)CC1(CCN(CCc3ccc(Cl)nc3)CC1)O2,213 to 215
20,CCCCCCCCCOc1ccnc(C(=O)O)c1,89 to 92
21,COC(=O)c1ccccc1NC(=O)OCC1CCN(CCNS(C)(=O)=O)CC1,106 to 108
22,CC(C)(C)CC(C)(C)n1scc(Br)c1=O,133 to 142
23,CCCCSc1nc(N)nc2c1ncn2C1C=CC(CO)C1 (stereo not given),120 to 123
24,NN=CNCCCCNC(=O)[C@@H]1CCCN1C(=O)[C@@H](CCC(N)=O)NS(=O)(=O)c1ccc2ccccc2c1,72 to 74
25,COC1c2sccc2C(=O)c2ccccc2C1Br (stereo not given),103 to 106
